Tests used:
[1] = molecular target: T1, human Cot catalytic domain (30-397 amino acids) (Homo sapiens, UniProt P41279); experiment: High Throughput Cot Biochemical Assay (KinEASE TR-FRET); settings: Cot KinEASE TR-FRET (HTRF) biochemical assay, 400 μM ATP; read-out: IC50 HTRF
T1 construct: Purified recombinant human Cot catalytic domain (30-397 amino acids) was purchased from Cama Biosciences; purchased Cama Biosciences (so in the source)
Procedure, shortened: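 Recombinant human Cot catalytic domain (aa 30-397), 5 nM, with 1 μM STK3 peptide and 400 μM ATP in MOPS pH 7.0 buffer with MgOAc, DTT, BSA, NP-40, glycerol, 0.1% DMSO. Phosphorylated XL665-peptide detected by Eu-[…] antibody TR-FRET.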

[2] = test system: TNFα production in LPS-stimulated human monocytes; experiment: Cot Monocyte TNFα Cell Based Assay; settings: Homo sapiens, Monocyte, TNFα in LPS-stimulated human monocytes; read-out: EC50 TNF
Procedure, shortened: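 Human monocytes (5,000 cells/well) pretreated with compound for 1 hour at 37° C (0.5% DMSO), then stimulated with 50 pg/ml LPS for 4 hours. Total TNFα measured by TR-FRET after overnight antibody incubation at room temp, expressed as percent of control between unstimulated and stimulated cells.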

T1 sequence (P41279 30-397): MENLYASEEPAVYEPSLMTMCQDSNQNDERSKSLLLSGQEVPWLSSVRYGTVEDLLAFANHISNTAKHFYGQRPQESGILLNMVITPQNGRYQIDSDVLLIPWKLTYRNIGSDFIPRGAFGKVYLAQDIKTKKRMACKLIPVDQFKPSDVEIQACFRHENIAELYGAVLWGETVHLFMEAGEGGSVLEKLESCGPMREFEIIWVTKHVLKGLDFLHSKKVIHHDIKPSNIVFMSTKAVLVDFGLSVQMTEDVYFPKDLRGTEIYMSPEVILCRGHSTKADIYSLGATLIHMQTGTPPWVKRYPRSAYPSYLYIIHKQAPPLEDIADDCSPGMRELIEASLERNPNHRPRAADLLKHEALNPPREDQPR

IC50 [1] [nM]	EC50 [2] [nM]	SMILES
34	451	[2H][C@](Nc1cc(Cl)c2ncc(C#N)c(N[C@@H]3CCCCC3(C)C)c2c1)(c1ccc(F)cc1)c1cn(C2CC2)nn1 [Example 318, 8-chloro-6-(((S)-(1-cyclopropyl-1H-1,2,3-triazol-4-yl)(4-fluorophenyl)methyl-d)amino)-4-(((R)-2,2-dimethylcyclohexyl)amino) quinoline-3-carbonitrile]
159	391	[2H][C@](Nc1cc(Cl)c2ncc(C#N)c(NC3CCCCC3C)c2c1)(c1ccc(F)cc1)c1cn(C2CC2)nn1 (stereo partly drawn) [Example 321, 8-chloro-6-(((S)-(1-cyclopropyl-1H-1,2,3-triazol-4-yl)(4-fluorophenyl)methyl-d)amino)-4-((2-methylcyclohexyl)amino) quinoline-3-carbonitrile]
140	959	N#Cc1cnc2c(Cl)cc(N[C@@H](c3ccc(F)cc3)c3cn(C4CC4)nn3)cc2c1NC(CN1CCOCC1)c1ccccc1 (stereo partly drawn) [Example 322, 8-chloro-6-(((S)-(1-cyclopropyl-1H-1,2,3-triazol-4-yl)(4-fluorophenyl)methyl)amino)-4-((2-morpholino-1-phenylethyl)amino)quinoline-3-carbonitrile]
82	1600	N#Cc1cnc2c(Cl)cc(N[C@@H](c3ccc(F)cc3)c3cn(C4CC4)nn3)cc2c1NC(CF)c1ccccc1 (stereo partly drawn) [Example 323, 8-chloro-6-(((S)-(1-cyclopropyl-1H-1,2,3-triazol-4-yl)(4-fluorophenyl)methyl)amino)-4-((2-fluoro-1-phenylethyl)amino)quinoline-3-carbonitrile]
4	450	[2H][C@](Nc1cc(Cl)c2ncc(C#N)c(NCC(C)(C)C)c2c1)(c1cccc(C#N)c1)c1c[nH]nn1 [Example 324, (S)-8-chloro-6-(((3-cyanophenyl)(1H-1,2,3-triazol-4-yl)methyl-d)amino)-4-(neopentylamino) quinoline-3-carbonitrile]
8	356	N#Cc1ccccc1[C@H](Nc1cc(Cl)c2ncc(C#N)c(Nc3cnc(F)c(F)c3)c2c1)c1cn(C2CC2)nn1 [Example 325, (S)-8-chloro-6-(((2-cyanophenyl)(1-cyclopropyl-1H-1,2,3-triazol-4-yl)methyl)amino)-4-((5,6-difluoropyridin-3-yl)amino)quinoline-3-carbonitrile]
199	1960	[2H]C(Nc1cc(Cl)c2ncc(C#N)c(N[C@H](CC)c3ccccc3)c2c1)(c1ccccc1Cl)c1nn[nH]c1C (stereo partly drawn) [Example 326, 8-chloro-6-(((2-chlorophenyl) (5-methyl-1H-1,2,3-triazol-4-yl)methyl-d)amino)-4-(((R)-1-phenylpropyl)amino)quinoline-3-carbonitrile]
4	166	[2H][C@](Nc1cc(Cl)c2ncc(C#N)c(NCC(C)(C)C)c2c1)(c1cccc(C#N)c1)c1cn(-c2cccnc2)nn1 [Example 327, (S)-8-chloro-6-(((3-cyanophenyl)(1-(pyridin-3-yl)-1H-1,2,3-triazo1-4-yl)methyl-d)amino)-4-(neopentylamino)quinoline-3-carbonitrile]
24	1240	N#Cc1ccccc1[C@H](Nc1cc(Cl)c2ncc(C#N)c(Nc3cnc(F)c(F)c3)c2c1)c1c[nH]nn1 [Example 328, (S)-8-chloro-6-(((2-cyanophenyl)(1H-1,2,3-triazol-4-yl)methyl)amino)-4-((5,6-difluoropyridin-3-yl)amino)quinoline-3-carbonitrile]
32	808	[2H][C@](Nc1cc(Cl)c2ncc(C#N)c(Nc3cnc(F)c(F)c3)c2c1)(c1ccc(F)cc1)c1cn(Cc2c(F)cccc2F)nn1 [Example 329, (S)-8-chloro-6-(((1-(2,6-difluorobenzyl)-1H-1,2,3-triazol-4-yl)(4-fluorophenyl)methyl-d)amino)-4-((5,6-difluoropyridin-3-yl)amino)quinoline-3-carbonitrile]
1420	> 10000	[2H][C@](Nc1cc(Cl)c2ncc(C#N)c(Nc3cnc(F)c(F)c3)c2c1)(c1ccc(F)cc1)c1cnn(CF)n1 [Example 330, (S)-8-chloro-4-((5,6-difluoropyridin-3-yl)amino)-6-(((2-(fluoromethyl)-2H-1,2,3-triazol-4-yl)(4-fluorophenyl)methyl-d)amino)quinoline-3-carbonitrile]
4	75	[2H][C@](Nc1cc(Cl)c2ncc(C#N)c(N[C@H](CC#N)c3ccccc3)c2c1)(c1ccc(F)cc1)c1cn(C2CC2)nn1 [Example 331, 8-chloro-4-(((R)-2-cyano-1-phenylethyl)amino)-6-(((S)-(1-cyclopropyl-1H-1,2,3-triazol-4-yl)(4-fluorophenyl)methyl-d)amino)quinoline-3-carbonitrile]
9	260	[2H][C@](Nc1cc(Cl)c2ncc(C#N)c(NCC3(C)CCOCC3)c2c1)(c1ccc(F)cc1)c1cn(C2CC2)nn1 [Example 333, (S)-8-chloro-6-(((1-cyclopropyl-1H-1,2,3-triazol-4-yl)(4-fluorophenyl)methyl-d)amino)-4-(((4-methyltetrahydro-2H-pyran-4-yl)methyl)amino) quinoline-3-carbonitrile]
258	> 10000	[2H][C@](Nc1cc(Cl)c2ncc(C#N)c(N[C@@H](CC#N)c3ccccc3)c2c1)(c1ccc(F)cc1)c1cn(C2CC2)nn1 [Example 334, 8-chloro-4-(((S)-2-cyano-1-phenylethyl)amino)-6-(((S)-(1-cyclopropyl-1H-1,2,3-triazol-4-yl)(4-fluorophenyl)methyl-d)amino)quinoline-3-carbonitrile]
40	204	[2H][C@](Nc1cc(Cl)c2ncc(C#N)c(NCC(C)(C)C)c2c1)(c1ccc(F)cc1)c1cn(-c2cccnc2)nn1 [Example 335, (S)-8-chloro-6-(((4-fluorophenyl)(1-(pyridin-3-yl)-1H-1,2,3-triazol-4-yl)methyl-d)amino)-4-(neopentylamino)quinoline-3-carbonitrile]
71	619	N#Cc1cnc2c(Cl)cc(N[C@@H](c3ccc(F)cc3)c3cn(-c4ccccc4C(F)(F)F)nn3)cc2c1Nc1cnc(F)c(F)c1 [Example 336, (S)-8-chloro-4-((5,6-difluoropyridin-3-yl)amino)-6-(((4-fluorophenyl)(1-(2-(trifluoromethyl)phenyl)-1H-1,2,3-triazol-4-yl)methyl)amino)quinoline-3-carbonitrile]
49	674	N#Cc1cnc2c(Cl)cc(N[C@@H](c3ccc(F)cc3)c3cn(-c4ccccc4F)nn3)cc2c1Nc1cnc(F)c(F)c1 [Example 337, (S)-8-chloro-4-((5,6-difluoropyridin-3-yl)amino)-6-(((4-fluorophenyl) (1-(2-fluorophenyl)-1H-1,2,3-triazol-4-yl)methyl)amino)quinoline-3-carbonitrile]
8	183	[2H][C@](Nc1cc(Cl)c2ncc(C#N)c(Nc3cnc(F)c(Cl)c3)c2c1)(c1ccc(F)cc1)c1cn(C2CC2)nn1 [Example 338, (S)-8-chloro-4-((5-chloro-6-fluoropyridin-3-yl)amino)-6-(((1-cyclopropyl-1H-1,2,3-triazol-4-yl)(4-fluorophenyl)methyl-d)amino)quinoline-3-carbonitrile]
55	1170	[2H][C@](Nc1cc(Cl)c2ncc(C#N)c(Nc3cncc(F)c3)c2c1)(c1ccc(F)cc1)c1cn(C(C)C)nn1 [Example 339, (S)-8-chloro-6-(((4-fluorophenyl)(1-isopropyl-1H-1,2,3-triazol-4-yl)methyl-d)amino)-4-((5-fluoropyridin-3-yl)amino)quinoline-3-carbonitrile]
2	57	[2H][C@](Nc1cc(Cl)c2ncc(C#N)c(N[C@H](CC)c3ccccc3)c2c1)(c1cccc(C#N)c1)c1cn(C2CC2)nn1 [Example 340, 8-chloro-6-(((S)-(3-cyanophenyl)(1-cyclopropyl-1H-1,2,3-triazol-4-yl)methyl-d)amino)-4-(((R)-1-phenylpropyl)amino)quinoline-3-carbonitrile]
1	71	[2H][C@](Nc1cc(Cl)c2ncc(C#N)c(NCC(C)(C)C)c2c1)(c1cccc(C#N)c1)c1cn(C2CC2)nn1 [Example 341, (S)-8-chloro-6-(((3-cyanophenyl)(1-cyclopropyl-1H-1,2,3-triazol-4-yl)methyl-d)amino)-4-(neopentylamino)quinoline-3-carbonitrile]
64	1230	[2H][C@](Nc1cc(Cl)c2ncc(C#N)c(Nc3cnc(F)c(F)c3)c2c1)(c1ccc(F)cc1)c1cn(Cc2ccccc2)nn1 [Example 342, (S)-6-(((1-benzyl-1H-1,2,3-triazol-4-yl)(4-fluorophenyl)methyl-d)amino)-8-chloro-4-((5,6-difluoropyridin-3-yl)amino)quinoline-3-carbonitrile]
13	151	[2H][C@@](Nc1cc(Cl)c2ncc(C#N)c(NCC(C)(C)C)c2c1)(c1cn(C2CC2)nn1)c1ccccc1Cl [Example 343, (S)-8-chloro-6-(((2-chlorophenyl)(1-cyclopropyl-1H-1,2,3-triazol-4-yl)methyl-d)amino)-4-(neopentylamino) quinoline-3-carbonitrile]

Reference: patent US10316017B2, “COT modulators and methods of use thereof” (Gilead Sciences, Inc., priority 2015, dated 2019)
